Data as given in PMC12006171, “Marsupial cathelicidins: characterization, antimicrobial activity and evolution in this unique mammalian lineage” (Frontiers in Immunology, 2025).
Values after ≈ are worked out from the molar mass of the structure shown. Like-named read-outs stand apart in the source and are kept apart here. One block for each compound: values may come before it. Where a SMILES comes first, the peptide text is derived from it.

Tests used:
Assay type in all cases: cell-based
[1] = tested on: Staphylococcus aureus clinical isolate – animal, methicillin-resistant (MRSA)
Experimental: (§1) Antimicrobial testing of 78 cathelicidin MPs was performed in two phases as outlined in Figure 1 . In phase I, 40 peptides (27 extant and 13 ancestral) were selected for testing based on rank (outlined above) and similarity to published marsupial cathelicidins with known antimicrobial activity ([33], [41]–[43]). These peptides were tested against nine bacteria (Staphylococcus aureus ATCC 29213 and clinical isolate, Escherichia coli ATCC 25922 and clinical isolate, Pseudomonas aeruginosa ATCC 27853 and clinical isolate, Streptococcus agalactiae ATCC 12386 and clinical isolate, Streptococcus pneumoniae ATCC 49619) and three fungi (Candida krusei ATCC 6258, Candida parapsilosis ATCC 22019, and Candida albicans clinical isolate). Details regarding these strains are available in Supplementary Table 4 . The antimicrobial activity of cathelicidins was determined as the minimum inhibitory concentration (MIC), which was the lowest concentration of cathelicidin that prevented visible bacterial or fungal growth, relative to the negative control. […] Minimum bactericidal concentration (MBC) and/or minimum fungicidal concentration (MFC) was conducted to determine microbicidal versus static action. Activity against S. aureus ATCC, E. coli ATCC, and Pseudomonas aeruginosa ATCC 27853 was examined in the presence of divalent cations to determine the impact of inhibitors.
(§2) Antimicrobial activity was determined using a broth microdilution susceptibility assay in 96 well polypropylene plates according to Clinical Laboratory Standards Institute guidelines M07-A and M26A as described previously ([33], [42], [43]). The bacterial and fungal isolates from humans and animals used in this study are outlined in Supplementary Table 4 . Only yeasts were included in the panel of fungi as they have been used in the susceptibility testing of eutherian ([3], [81]–[83]) and other marsupial cathelicidins previously ([33], [42], [43]). Cathelicidin mature peptides were solubilized in DMSO and serially diluted in duplicate from 128-0.25μg/mL in a final volume of 100µL. For bacteria, cathelicidins were diluted in Mueller Hinton Broth (MHB) with or without 10% lysed horse blood, and with (MH II B) or without (MHB) calcium and magnesium cations. For fungi, cathelicidins were diluted in Roswell Park Memorial Institute medium (RPMI)-1640 MOPS. Ampicillin or tetracycline were included as a positive control for Gram-positive and -negative bacteria respectively, while amphotericin B was used for fungi. A media-only negative control and growth control (no cathelicidin) were also included on each plate. Bacteria were sub-cultured on Muller Hinton agar (MHA) or sheep blood agar (BA), and fungi on Sabouraud dextrose agar (SAB), 20–24 hours prior to the test. Colonies were suspended in saline, the concentration adjusted to a 0.5 McFarland standard, and then diluted in media to a concentration of 1.0 x 10^6 cells/mL. Then, 100μL was added to each well of the cathelicidin dilution plate, giving a final inoculum density of 5 x 10^5 CFU/mL and cathelicidin concentration of 64-0.125μg/mL. Colony counts were performed on MHA/BA/SAB to confirm inoculum density. All plates were incubated at 35°C for 20–24 hours, depending on the strain.
(§3) Colonies were counted and compared to the colony count of the starting inoculum.

[2] = tested on: Staphylococcus aureus clinical isolate – animal, penicillin-resistant (PRSA)
Experimental: as §1, §2, §3

[3] = tested on: Candida parapsilosis ATCC 22019; experiment: microbe, parasite or virus in culture
Summary of the method: (§4)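 Broth microdilution per CLSI M07-A/M26A; peptides in DMSO, final 64-0.125 μg/mL, inoculum 5 x 10^5 CFU/mL. Bacteria in MHB ± 10% lysed horse blood ± Ca/Mg cations, yeasts in RPMI-1640 MOPS; 35°C for 20–24 h. MIC is lowest concentration without visible growth.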

Candida krusei ATCC 6258 = experiment: microbe, parasite or virus in culture
Summary of the method: as §4

[4] = tested on: Streptococcus agalactiae Clinical isolate - animal; experiment: microbe, parasite or virus in culture
Summary of the method: as §4

[5] = tested on: Streptococcus agalactiae ATCC 12386; experiment: microbe, parasite or virus in culture
Summary of the method: as §4

[6] = tested on: Streptococcus pneumoniae ATCC 49619; experiment: microbe, parasite or virus in culture
Summary of the method: as §4

[7] = tested on: Candida albicans Clinical isolate - human; experiment: microbe, parasite or virus in culture; conditions: read-out: MIC C. albicans
Summary of the method: as §4

[8] = tested on: Pseudomonas aeruginosa ATCC 27853; experiment: microbe, parasite or virus in culture
Summary of the method: (§5)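 Broth microdilution per CLSI M07-A/M26A: DMSO-solubilized cathelicidin mature peptides at final 64-0.125μg/mL in Mueller Hinton broth (with or without 10% lysed horse blood, with or without calcium/magnesium), final inoculum 5 x 10^5 CFU/mL, 35°C for 20–24 hours. MIC = lowest concentration preventing visible growth.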

[9] = tested on: Pseudomonas aeruginosa clinical isolate - animal; experiment: microbe, parasite or virus in culture
Summary of the method: as §5

[10] = tested on: Staphylococcus aureus ATCC 29213; experiment: microbe, parasite or virus in culture
Summary of the method: as §5

[11] = tested on: Escherichia coli ATCC 25922; experiment: microbe, parasite or virus in culture
Summary of the method: as §5

[12] = tested on: Escherichia coli clinical isolate - animal; experiment: microbe, parasite or virus in culture
Summary of the method: as §5

[13] = tested on: Staphylococcus aureus clinical isolate - animal; experiment: microbe, parasite or virus in culture
Summary of the method: as §5

[14] = clinical isolate – animal, methicillin-resistant
[15] = clinical isolate – animal, penicillin-resistant (PRSA)
[16] = value in brackets, µM equivalent of Table 3
[17] = value in brackets, µM version of Table 4
[18] = clinical isolate, value in brackets, µM equivalent of Table 3
[19] = clinical isolate, µM equivalent of Table 3
[20] = clinical isolate, superscript value, cation-adjusted Mueller Hinton broth, µM equivalent

MIC MRSA [1, 14]: 8.8 µM (≈ 31.8 µg/mL)
MIC PRSA [2, 15]: 2.2 µM (≈ 7.95 µg/mL)
MIC C. parapsilosis ATCC ([3]; ATCC 22019): 17.7 µM (≈ 63.9 µg/mL)
MIC C. krusei ATCC (Candida krusei ATCC 6258; ATCC 6258): 4.4 µM (≈ 15.9 µg/mL)
MIC ([4]; clinical isolate - animal, read-out: MIC S. agalactiae): >17.7 µM
MIC ([5]; ATCC 12386, read-out: MIC S. agalactiae ATCC): >17.7 µM
MIC ([6]; ATCC 49619, read-out: MIC S. pneumoniae ATCC): >17.7 µM
MIC ([7]; Clinical isolate - human): >17.7 µM
MIC ([8]; ATCC 27853, read-out: MIC P. aeruginosa ATCC): >17.7 µM
MIC ([9]; clinical isolate - animal, read-out: MIC P. aeruginosa): >17.7 µM
MIC ([10]; ATCC 29213, read-out: MIC S. aureus ATCC): 8.8 µM (≈ 31.8 µg/mL)
MIC ([10]; ATCC 29213, read-out: MIC in the presence of cations S. aureus ATCC): 4.4 µM
MIC ([11]; ATCC 25922, read-out: MIC E. coli ATCC): 8.8 µM (≈ 31.8 µg/mL)
MIC ([11]; ATCC 25922, read-out: MIC in the presence of cations E. coli ATCC): 8.8 µM
MIC E. coli ([12]; clinical isolate - animal): 8.8 (8.8)^8.8 µM
MIC in the presence of cations E. coli ([12]; clinical isolate - animal): 8.8 (8.8)^8.8 µM
MIC ([13]; clinical isolate - animal, read-out: MIC S. aureus): 4.4 µM (≈ 15.9 µg/mL)
MIC ([13]; clinical isolate - animal, read-out: MIC in the presence of cations S. aureus): 4.4 µM
SMILES: CC[C@H](C)[C@H](NC(=O)[C@H](CCCNC(=N)N)NC(=O)[C@@H](NC(=O)[C@H](CCCNC(=N)N)NC(=O)[C@@H](N)CCCCN)[C@@H](C)CC)C(=O)N[C@@H](CC(C)C)C(=O)NCC(=O)N[C@@H](CCCNC(=N)N)C(=O)N[C@@H](CC(C)C)C(=O)N[C@@H](Cc1c[nH]c2ccccc12)C(=O)N[C@@H](CC(=O)O)C(=O)NCC(=O)N[C@@H](CC(C)C)C(=O)N[C@@H](CCCNC(=N)N)C(=O)N[C@@H](CC(N)=O)C(=O)N[C@@H](CC(C)C)C(=O)NCC(=O)N[C@@H](CC(N)=O)C(=O)N[C@@H](CCCNC(=N)N)C(=O)N[C@H](C(=O)N[C@@H](CCCNC(=N)N)C(=O)N[C@@H](CC(N)=O)C(=O)N[C@@H](CCCNC(=N)N)C(=O)N[C@H](C(=O)N[C@@H](CCCNC(=N)N)C(=O)N[C@@H](CC(=O)O)C(=O)N[C@@H](Cc1ccccc1)C(=O)N[C@@H](Cc1ccccc1)C(=O)N[C@@H](CO)C(=O)O)[C@@H](C)CC)[C@@H](C)CC [MyfaCath5] (H-KRIRILGRLWDGLRNLGNRIRNRIRDFFS-OH)
MBC MRSA [1, 14]: 8.8 µM (≈ 31.8 µg/mL)
MBC PRSA [2, 15]: 2.2 µM (≈ 7.95 µg/mL)
MFC C. parapsilosis ATCC ([3]; ATCC 22019): 17.7 µM (≈ 63.9 µg/mL)
MFC C. krusei ATCC (Candida krusei ATCC 6258; ATCC 6258): 4.4 µM (≈ 15.9 µg/mL)
MBC S. aureus ATCC ([10]; ATCC 29213): 17.7 µM (≈ 63.9 µg/mL)
MBC E. coli ATCC ([11]; ATCC 25922): 17.7 µM (≈ 63.9 µg/mL)
MBC E. coli ([12]; clinical isolate - animal): 8.8 (8.8)^8.8 µM
MBC S. aureus ([13]; clinical isolate - animal): 8.8 µM (≈ 31.8 µg/mL)

SMILES: CC[C@H](C)[C@H](NC(=O)[C@H](CCCCN)NC(=O)[C@H](Cc1ccccc1)NC(=O)[C@H](CC(N)=O)NC(=O)[C@H](CCCCN)NC(=O)[C@H](CC(C)C)NC(=O)[C@H](CCCNC(=N)N)NC(=O)[C@H](CCCCN)NC(=O)[C@H](CCCCN)NC(=O)[C@@H](NC(=O)[C@H](CO)NC(=O)[C@H](CC(=O)O)NC(=O)CNC(=O)[C@H](Cc1ccccc1)NC(=O)[C@H](CCCCN)NC(=O)[C@H](CCCCN)NC(=O)[C@H](CC(C)C)NC(=O)[C@H](CCCCN)NC(=O)[C@H](CCCCN)NC(=O)[C@H](CCCCN)NC(=O)[C@H](CC(C)C)NC(=O)[C@H](CO)NC(=O)[C@H](CCCCN)NC(=O)[C@H](Cc1c[nH]c2ccccc12)NC(=O)[C@H](CC(C)C)NC(=O)CNC(=O)[C@H](CCCNC(=N)N)NC(=O)[C@@H](N)CCCCN)[C@@H](C)CC)C(=O)NCC(=O)N[C@@H](Cc1ccccc1)C(=O)N1CCC[C@H]1C(=O)N[C@H](C(=O)N1CCC[C@H]1C(=O)N[C@@H](CC(C)C)C(=O)O)[C@@H](C)CC [MAP14] (H-KRGLWKSLKKKLKKFGDSIKKRLKNFKIGFPIPL-OH)
MBC MRSA [1, 16]: 15.8 µM
MIC MRSA ([1]; µM equivalent of Table 3): 15.8 µM
MBC PRSA [2, 16]: 3.9 µM
MIC PRSA ([2]; µM equivalent of Table 3): 3.9 µM
MFC C. parapsilosis ATCC [3, 17]: 7.9 µM (≈ 31.9 µg/mL)
MIC ([3]; µM version of Table 4, read-out: MIC C. parapsilosis ATCC): 3.9 µM (≈ 15.8 µg/mL)
MFC C. krusei ATCC (Candida krusei ATCC 6258; [17]): > 15.8 µM
MIC C. krusei ATCC (Candida krusei ATCC 6258; µM version of Table 4): 15.8 µM (≈ 63.9 µg/mL)
MBC S. agalactiae [4, 18]: 7.9 µM
MIC S. agalactiae [4, 19]: 7.9 µM
MBC S. agalactiae ATCC [5, 16]: 15.8 µM
MIC S. agalactiae ATCC ([5]; µM equivalent of Table 3): 15.8 µM
MBC S. pneumoniae ATCC [6, 16]: 7.9 µM
MIC S. pneumoniae ATCC ([6]; µM equivalent of Table 3): 7.9 µM
MIC ([7]; clinical isolate, µM version of Table 4): >15.8 µM
MIC ([8]; superscript value, cation-adjusted Mueller Hinton broth, µM equivalent, read-out: MIC in the presence of cations P. aeruginosa ATCC): 1.9 µM
MBC P. aeruginosa ATCC [8, 16]: 3.9 µM
MIC ([8]; µM equivalent of Table 3, read-out: MIC P. aeruginosa ATCC): 3.9 µM
MBC P. aeruginosa [9, 18]: 3.9 (3.9)^3.9 µM
MIC P. aeruginosa [9, 19]: 3.9 (3.9)^3.9 µM
MIC in the presence of cations S. aureus ATCC ([10]; superscript value, cation-adjusted Mueller Hinton broth, µM equivalent of Table 3): 7.9 (7.9)^7.9 µM
MBC S. aureus ATCC [10, 16]: 7.9 (7.9)^7.9 µM
MIC S. aureus ATCC ([10]; µM equivalent of Table 3): 7.9 (7.9)^7.9 µM
MIC in the presence of cations E. coli ATCC ([11]; superscript value, cation-adjusted Mueller Hinton broth, µM equivalent): 1.9 (1.9)^1.9 µM
MBC E. coli ATCC [11, 16]: 1.9 (1.9)^1.9 µM
MIC E. coli ATCC ([11]; µM equivalent of Table 3): 1.9 (1.9)^1.9 µM
MIC in the presence of cations E. coli ([12]; clinical isolate, superscript value, cation-adjusted Mueller Hinton broth): 4 µg/mL
MIC in the presence of cations E. coli [12, 20]: 0.9 µM
MBC E. coli [12, 18]: 1.9 µM
MIC [12, 19]: 1.9 µM
MIC in the presence of cations S. aureus [13, 20]: 7.9 (7.9)^7.9 µM
MBC S. aureus [13, 18]: 7.9 (7.9)^7.9 µM
MIC S. aureus [13, 19]: 7.9 (7.9)^7.9 µM
